{"source": "patent US20050132448A1", "about": "“Assay for beta cell toxic macrolides” (priority 2001, published 2005)", "key": {"[1]": {"system": "Balb/c mice", "test": "Pancreatic immunoreactive insulin content by RIA on pancreas homogenates", "assay_type": "in vivo", "details": "treated 14 days previously, 15 minutes after glucose challenge", "description": "Groups of 9 mice were treated with bafilomycin A1 or carrier solution then fasted, anaesthetised with penotobarbitone and challenged with glucose as described for the OGTT. Blood samples for insulin assay were collected from the orbital plexus from fasted mice or from mice 15 minutes after glucose challenge using 4×75 μl haematocrit tubes for each bleed. Serum samples were diluted 1 in 5 or 1 in 20 then assayed in duplicate for insulin content using a Linco sensitive rat insulin radioimmunoassay kit. Pancreata from the mice that were bled 15 minutes after glucose challenge were dissected and frozen on dry ice. The frozen pancreata were homogenised in 2 ml of PBS containing 1 mg/ml BSA per gram of pancreas by 10 strokes in a dounce homogeniser. The slurry was sonicated using 3×10 second bursts and then centrifuged at 12,000×g for 60 minutes. The supernatants were stored at −20° C. Insulin content was determined by sensitive rat insulin RIA using a 1 in 1,000 dilution of the homogenates.\nPancreatic immunoreactive insulin content was determined directly by RIA on homogenates of pancreas. Mice treated 14 days previously were fasted and then challenged with glucose 15 minutes prior to removal of the pancreas. […]"}, "[2]": {"system": "Balb/c mice", "test": "Oral glucose tolerance test (OGTT)", "assay_type": "in vivo", "description": "(§1) Male Balb/c mice were provided by the Monash University Central Animal House and Breeding Facility. The Monash University Department of Biochemistry Animal Ethics Committee approved all animal experimentation. Bafilomycin A1 (Sigma) was dissolved in 70% ethanol then diluted 1 in 10 with sterile phosphate buffered saline (PBS) to give a working stock of 4.8 μg/ml. Groups of between 3 and 9 mice as indicated were administered 12 μg per kilogram (body weight) bafilomycin A1 by intraperitoneal injection, which should achieve a final concentration in the blood of 275 nM bafilomycin A1 assuming a blood volume of 70 ml per kg for mice. […] Control mice received the ethanol/PBS carrier solution that lacked the inhibitor.\nGroups of 6 control and 6 treated mice were fasted for 6-7 hours then anaesthetised by intraperitoneal injection of 35 mg/kg body weight of pentobarbitone (Nembutal) in order to minimise stress-induced variations in blood glucose. D-glucose (2 mg/g body weight) was delivered into the stomach by gavage as a 200 mg/ml solution. Blood glucose concentrations were determined for the fasted mice and at 15, 30, 60 and 120 minutes after glucose challenge as follows. Whole blood (approximately 60 μl) was collected from the tail vein and glucose concentrations were immediately determined by the glucose oxidase method using a YSI glucose analyser."}, "[3]": {"system": "NOD/lt mice", "test": "Acceleration of diabetes onset in NOD mice", "assay_type": "in vivo", "details": "12 ng per gram i.p. on 5 consecutive days, 11-week-old female mice", "description": "The NOD mouse develops spontaneous diabetes due to an autoimmune mediated destruction of the pancreatic islet β-cells. The characteristics of diabetes development in the NOD mouse parallel those in humans, making the NOD mouse a useful model of human Type 1 diabetes. Lymphocytic infiltrates in the pancreatic islets, termed insulitis, first develops in NOD mice soon after weaning at 4 weeks of age and hyperglycaemia first appears from 18 to 32 weeks of age. Bafilomycin A1 was administered to NOD mice to test whether the onset of hyperglycaemia was accelerated.\nEleven-week-old female NOD/lt mice were injected intraperitoneally with either 12 ng per gram body weight of bafilomycin A1 (10 mice) or phosphate buffered saline carrier solution (10 mice) on each of 5 consecutive days. Blood glucose was monitored weekly and diabetes defined as a blood glucose measurement greater than 11 mmol/L."}, "[4]": {"system": "P-ATPase", "details": "275 nM; cited from earlier work"}, "[5]": {"system": "Balb/c mice", "test": "Long-term effects on random blood glucose, weight and islet morphology/size", "assay_type": "in vivo", "description": "FIG. 6 is a graphical representation of islet size following administration of bafilomycin A1. Reduced islet size is a long-term consequence of vacuolar ATPase inhibition. Pancreas morphology was examined at either 1, 7, 26 or 90 days after administration of bafilomycin A1. Islet size was determined by measuring the areas of the pancreas sections positive for staining with insulin antibody using MCID software. • Controls—223 islets from 12 mice • 1 day—81 islets from 3 mice • 7 days—125 islets from 3 mice • 26 days—90 islets from 4 mice • 90 days—81 islets from 4 mice • The black square represents the median, the dotted boxes 25-75th percentiles, bars the 10-90th percentiles, and outliers by dots.\nThe pancreas, liver, kidney and brain were dissected from anaesthetised mice and immediately fixed in formalin. Paraffin embedded sections (4 μm) were either stained with haemotoxylin and eosin or prepared for immunohistochemistry or indirect immunofluorescence. Immunostaining was performed on de-paraffinised sections as follows. The section was blocked in PBS containing 1% skim milk powder for 1 hour. Anti-insulin antiserum raised in Guinea pig (Dako) was diluted 1 in 50 in PBS 1% skim milk powder and left at room temperature for 60 minutes. Sections were washed in PBS and incubated with 1:200 dilution of horse radish peroxidase conjugated anti-guinea pig antiserum (Sigma) or a 1:400 dilution of FITC-conjugated anti-guinea pig serum (Sigma) for 1 hour. Endogenous peroxidase activity was inactivated using 0.5% hydrogen peroxide in methanol prior to the antibody incubations and bound HRP conjugated antibody was detected using Sigma FAST-DAB peroxidase tablets. FITC was detected using an Olympus epifluorescence microsocope and images were captured and analysed using a digital camera and MCID software.\nThe long-term effects of bafilomycin A1 on blood glucose concentrations and islet morphology were investigated in 4 mice treated twice with a weekly interval. Random blood glucose levels (RBG) and weight were determined, weekly over 90 days and results were compared to a control group of 3 mice treated with carrier solution."}, "[6]": {"system": "Balb/c mice", "test": "Plasma immunoreactive insulin (radioimmunoassay)", "assay_type": "in vivo", "details": "7 days after treatment", "description": "as §1\nGroups of 9 mice were treated with bafilomycin A1 or carrier solution then fasted, anaesthetised with penotobarbitone and challenged with glucose as described for the OGTT. Blood samples for insulin assay were collected from the orbital plexus from fasted mice or from mice 15 minutes after glucose challenge using 4×75 μl haematocrit tubes for each bleed. Serum samples were diluted 1 in 5 or 1 in 20 then assayed in duplicate for insulin content using a Linco sensitive rat insulin radioimmunoassay kit. […] Insulin content was determined by sensitive rat insulin RIA using a 1 in 1,000 dilution of the homogenates."}, "[7]": {"system": "F-ATPase", "details": "275 nM; cited from earlier work"}, "[8]": {"system": "vATPase", "details": "275 nM; cited from earlier work"}}, "note": "“Also recorded” adds a separate entry of the source.", "data": [{"smiles": "CO/C1=C\\C(C)=C\\[C@@H](C)[C@@H](O)[C@@H](C)C/C(C)=C/C=C/[C@H](OC)[C@@H]([C@@H](C)[C@@H](O)[C@H](C)[C@@]2(O)C[C@@H](O)[C@H](C)[C@@H](C(C)C)O2)OC1=O", "note": "[bafilomycin A1]", "values": [{"measurement": "more pancreatic immunoreactive insulin than controls", "setting": "[1]", "result": 70, "unit": "%"}, {"measurement": "pancreatic immunoreactive insulin content (median)", "setting": "[1]", "result": "565 μg IRI per gram of pancreas"}, {"measurement": "blood glucose after 2 hours (OGTT)", "setting": "[2]; 21 days after treatment", "result": "4.2 ± 0.2", "unit": "mM"}, {"measurement": "blood glucose after 2 hours (OGTT)", "setting": "[2]; seven days after administration", "result": "4.1 ± 0.4", "unit": "mM"}, {"measurement": "fasting glucose levels", "setting": "[2]; treated mice", "result": "no change"}, {"measurement": "peak glucose level, 15 minutes after glucose challenge", "setting": "[2]; twenty one days after administration", "result": "12.5 ± 2.4", "unit": "mM"}, {"measurement": "onset of islet beta cell destruction and hyperglycaemia", "setting": "[3]", "result": "slight acceleration"}, {"measurement": "inhibition of P-ATPase activity", "setting": "[4]", "result": "no detectable inhibition"}, {"measurement": "total islet area as a percentage of the total area of pancreas", "setting": "[5]; 1 day", "result": 0.33, "unit": "%"}, {"measurement": "islet size vs controls", "setting": "[5]; 1 day treatment group", "result": "no differences"}, {"measurement": "total islet area as a percentage of the total area of pancreas", "setting": "[5]; 7 day treated mice", "result": 0.30, "unit": "%"}, {"measurement": "islet size vs controls", "setting": "[5]; 7 day treatment group", "result": "no differences"}, {"measurement": "total islet area as a percentage of the total area of pancreas", "setting": "[5]; 26 day treated mice", "result": 0.23, "unit": "%"}, {"measurement": "morphology of kidney, liver, testes and brain", "setting": "[5]; 90 day end-point", "result": "did not reveal any gross morphological changes"}, {"measurement": "morphology of the islets", "setting": "[5]; 90 day end-point, 2 doses", "result": "signs of fragmentation or neogenesis"}, {"measurement": "total islet area as a percentage of the total area of pancreas", "setting": "[5]; 90 day treated mice", "result": 0.16, "unit": "%"}, {"measurement": "islet size vs controls", "setting": "[5]; treated 26 days previously", "result": "significant decrease"}, {"measurement": "mean islet size", "setting": "[5]; treated 26 days previously", "result": 4900, "unit": "μm2"}, {"measurement": "islet size vs controls", "setting": "[5]; treated 90 days previously", "result": "significant decrease"}, {"measurement": "mean islet size", "setting": "[5]; treated 90 days previously, 2 doses", "result": 2800, "unit": "μm^2"}, {"measurement": "increased level of RBG first detectable after treatment", "setting": "[5]; treated twice a week apart", "result": 50, "unit": "days"}, {"measurement": "weight of treated vs control groups", "setting": "[5]; treated twice a week apart, followed 90 days", "result": "did not differ significantly; also recorded: No significant difference"}, {"measurement": "random blood glucose levels (RBG) vs controls", "setting": "[5]; treated twice a week apart, weekly measurement for 90 days", "result": "small but significant increase"}, {"measurement": "plasma insulin level fifteen minutes after glucose challenge", "setting": "[6]", "result": "15±10"}, {"measurement": "fasting plasma immunoreactive insulin level", "setting": "[6]; fasting", "result": "1.2±0.8"}, {"measurement": "inhibition of F-ATPase activity", "setting": "[7]", "result": "no detectable inhibition"}, {"measurement": "inhibition of in vitro vATPase activity", "setting": "[8]", "result": "sufficient to inhibit"}]}]}
